The text below walks through data of publication PMC11423540, “Synthesis and biological evaluation of ortho-phenyl phenylhydroxamic acids containing phenothiazine with improved selectivity for class IIa histone deacetylases” (Journal of Enzyme Inhibition and Medicinal Chemistry, 2024).

Each structure is given as a SMILES string. Bounds are passed on as bounds.

One data set concerns SCC2095 cells. Put plainly: Western blotting of caspase- and HDAC-related proteins. The conditions noted are these: western blot. The data set is classed as cell-based, human. The protocol: The protein expression was performed as previously described. Proteins were resolved on 10% SDS-PAGE, then transferred to PVDF (Bio-Rad) membranes. After blocking with 5% skimmed milk in PBS containing 0.1% Tween 20, the membranes were probed with primary antibodies against interest target proteins at 4 °C overnight. The following primary antibodies were used: […], cleaved caspase 9, acetyl α-tubulin, Hsp90, Histone H2A.X, p38, p-^180Thr/^182Tyr p38, PPARγ, and p21 were purchased from Cell Signalling Technologies (Beverly, MA, USA); pro-caspase 8, Millipore; β-actin, Sigma-Aldrich (St. Louis, MO, USA). Then, the immunoblots were washed and exposed to HRP-conjugated secondary antibodies at room temperature for 1 h. The immunoblots were examined by enhanced chemiluminescence.

Data set [1] in a line: Cell viability (MTT) assay, normal human lung fibroblasts. It counts as cell-based. The note with it: normal human lung fibroblasts (NHLF, CC-2512); normal human lung fibroblast cells; read-out: IC50 of cytotoxicity against normal cells. From the text: (§1) Human breast cancer MDA-MB-231 cells and gastric cancer SCM-1 cells were purchased from the American Type Culture Collection (Manasas, VA, USA). SCC2095 human oral cancer cells were kindly provided by Professor Susan R. Mallery (The Ohio State University). Normal human lung fibroblasts (NHLFs; CC-2512) were purchased from the Lonza (Walkersville, MD, USA). SCM-1 cells were maintained in RPMI-1640 medium (Invitrogen, Carlsbad, CA, USA); MDA-MB-231 and SCC2095 cells were maintained in DMEM/F12 (Invitrogen); and NHLFs were maintained in FGM™-2 medium (Lonza) with 2% serum, supplemented with 10% heat-inactivated foetal bovine serum (FBS; Gibco, Grand Island, NY, USA). All cells were cultured at 37 °C in a humidified incubator containing 5% CO2 and 95% relative humidity.
(§2) To assess cell viability, cells were seeded in three replicates into 96-well plates at a density of 5×10^3/well for 24 h following incubation with compounds at the indicated concentrations. Then, cell viability was assessed with 3–(4,5-dimethylthiazol-2-yl)-2,5-diphenyltetrazolium bromide (MTT) solution (0.5 mg/mL) for 4h as described previously. After removing the medium, 200 µL of DMSO was added, and then the absorbance was measured at 570 nm using a plate reader (BMG LABTECH, Germany).

Data set [2] has as its system SCC2095, MDA-MB-231 and SCM-1 cells. Put plainly: Cell viability (MTT) assay, cancer cell lines (summary). It counts as cell-based. The conditions noted are these: Homo sapiens; SCC2095, MDA-MB-231, SCM-1; read-out: IC50 of cytotoxicity, range over cancer cell lines.
Text: as §1, §2

The subject of the next data set is MDA-MB-231 cells. Put plainly: Cell viability (MTT) assay, MDA-MB-231. The data set is classed as cell-based. The conditions noted are these: human breast cancer cells, read-out: IC50 of cytotoxicity MDA-MB-231.
Text: as §1, §2

For a further data set, the system named is HeLa nuclear HDACs. Put plainly: HDAC inhibition assay, HeLa nuclear extract (mixture of class I HDACs 1, 2, and 3). The conditions noted are these: read-out: IC50 HeLa nuclear HDACs, Boc-Lys-(AMC) substrate.
A further data set addresses HDAC4 (Homo sapiens, UniProt P56524). The data set is described as follows: HDAC inhibition assay, HDAC4.
A further data set addresses T1, HDAC6 (Homo sapiens, UniProt Q9UBN7).
T1 sequence (Q9UBN7 1-1215): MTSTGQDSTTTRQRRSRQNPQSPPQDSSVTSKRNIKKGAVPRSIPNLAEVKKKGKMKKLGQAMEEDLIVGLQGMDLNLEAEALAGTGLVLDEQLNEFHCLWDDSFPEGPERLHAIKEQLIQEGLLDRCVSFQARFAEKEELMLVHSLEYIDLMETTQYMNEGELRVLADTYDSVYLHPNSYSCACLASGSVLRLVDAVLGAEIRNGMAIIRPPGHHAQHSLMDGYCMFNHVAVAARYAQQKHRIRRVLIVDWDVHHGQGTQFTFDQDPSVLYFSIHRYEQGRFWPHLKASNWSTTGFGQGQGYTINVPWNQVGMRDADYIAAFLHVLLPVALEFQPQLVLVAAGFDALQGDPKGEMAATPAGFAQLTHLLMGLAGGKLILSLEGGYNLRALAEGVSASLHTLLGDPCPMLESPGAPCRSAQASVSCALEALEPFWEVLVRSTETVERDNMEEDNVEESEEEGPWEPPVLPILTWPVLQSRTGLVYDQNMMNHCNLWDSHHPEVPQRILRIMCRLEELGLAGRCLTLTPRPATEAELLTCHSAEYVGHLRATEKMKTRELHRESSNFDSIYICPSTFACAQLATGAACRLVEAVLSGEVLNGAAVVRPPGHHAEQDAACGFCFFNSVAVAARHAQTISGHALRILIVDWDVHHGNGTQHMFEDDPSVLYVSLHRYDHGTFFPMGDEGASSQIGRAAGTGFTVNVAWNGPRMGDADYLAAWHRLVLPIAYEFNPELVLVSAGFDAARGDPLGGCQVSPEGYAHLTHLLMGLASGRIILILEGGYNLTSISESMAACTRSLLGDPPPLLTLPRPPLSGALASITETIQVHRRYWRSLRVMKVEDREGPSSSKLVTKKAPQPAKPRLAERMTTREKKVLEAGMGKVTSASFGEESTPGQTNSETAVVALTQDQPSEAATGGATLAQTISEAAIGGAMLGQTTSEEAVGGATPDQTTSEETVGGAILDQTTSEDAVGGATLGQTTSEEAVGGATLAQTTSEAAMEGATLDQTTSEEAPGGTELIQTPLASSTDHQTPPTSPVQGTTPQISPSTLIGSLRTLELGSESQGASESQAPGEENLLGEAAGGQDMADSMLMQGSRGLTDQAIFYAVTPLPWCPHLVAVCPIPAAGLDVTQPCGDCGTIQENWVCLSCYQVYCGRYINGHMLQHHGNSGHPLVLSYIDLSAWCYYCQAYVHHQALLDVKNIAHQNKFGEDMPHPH
Put plainly: HDAC inhibition assay, HDAC6.

For the next data set, the target named is HDAC9 (Homo sapiens, UniProt Q9UKV0). The data set is described as follows: HDAC inhibition assay, HDAC9.
Sequence of HDAC9 (Q9UKV0 whole entry): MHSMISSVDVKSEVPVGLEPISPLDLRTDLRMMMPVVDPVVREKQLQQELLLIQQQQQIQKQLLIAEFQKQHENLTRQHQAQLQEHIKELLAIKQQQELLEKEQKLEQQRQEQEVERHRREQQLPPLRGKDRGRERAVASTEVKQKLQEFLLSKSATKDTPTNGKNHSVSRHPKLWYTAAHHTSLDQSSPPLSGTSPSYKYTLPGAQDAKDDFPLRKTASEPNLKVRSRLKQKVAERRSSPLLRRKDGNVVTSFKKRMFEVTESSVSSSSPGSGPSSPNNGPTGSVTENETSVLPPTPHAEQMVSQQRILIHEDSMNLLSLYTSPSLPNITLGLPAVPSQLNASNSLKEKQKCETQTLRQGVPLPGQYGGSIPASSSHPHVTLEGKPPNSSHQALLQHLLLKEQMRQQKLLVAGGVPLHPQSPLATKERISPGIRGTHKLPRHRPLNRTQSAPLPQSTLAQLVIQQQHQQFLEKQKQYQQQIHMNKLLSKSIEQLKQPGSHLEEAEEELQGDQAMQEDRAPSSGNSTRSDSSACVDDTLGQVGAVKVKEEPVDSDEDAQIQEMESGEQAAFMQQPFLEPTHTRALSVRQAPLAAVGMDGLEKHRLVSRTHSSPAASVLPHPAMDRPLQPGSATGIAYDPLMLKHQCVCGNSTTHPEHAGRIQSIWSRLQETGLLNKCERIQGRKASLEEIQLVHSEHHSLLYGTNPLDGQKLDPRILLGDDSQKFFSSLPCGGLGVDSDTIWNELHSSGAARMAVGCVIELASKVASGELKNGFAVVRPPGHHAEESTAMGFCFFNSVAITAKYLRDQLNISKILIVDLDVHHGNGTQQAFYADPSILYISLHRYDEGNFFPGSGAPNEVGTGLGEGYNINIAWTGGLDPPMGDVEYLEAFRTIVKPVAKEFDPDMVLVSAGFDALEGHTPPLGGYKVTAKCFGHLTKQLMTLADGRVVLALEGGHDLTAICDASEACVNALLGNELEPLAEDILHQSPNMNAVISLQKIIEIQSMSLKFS

Sequence of HDAC4 (P56524 whole entry): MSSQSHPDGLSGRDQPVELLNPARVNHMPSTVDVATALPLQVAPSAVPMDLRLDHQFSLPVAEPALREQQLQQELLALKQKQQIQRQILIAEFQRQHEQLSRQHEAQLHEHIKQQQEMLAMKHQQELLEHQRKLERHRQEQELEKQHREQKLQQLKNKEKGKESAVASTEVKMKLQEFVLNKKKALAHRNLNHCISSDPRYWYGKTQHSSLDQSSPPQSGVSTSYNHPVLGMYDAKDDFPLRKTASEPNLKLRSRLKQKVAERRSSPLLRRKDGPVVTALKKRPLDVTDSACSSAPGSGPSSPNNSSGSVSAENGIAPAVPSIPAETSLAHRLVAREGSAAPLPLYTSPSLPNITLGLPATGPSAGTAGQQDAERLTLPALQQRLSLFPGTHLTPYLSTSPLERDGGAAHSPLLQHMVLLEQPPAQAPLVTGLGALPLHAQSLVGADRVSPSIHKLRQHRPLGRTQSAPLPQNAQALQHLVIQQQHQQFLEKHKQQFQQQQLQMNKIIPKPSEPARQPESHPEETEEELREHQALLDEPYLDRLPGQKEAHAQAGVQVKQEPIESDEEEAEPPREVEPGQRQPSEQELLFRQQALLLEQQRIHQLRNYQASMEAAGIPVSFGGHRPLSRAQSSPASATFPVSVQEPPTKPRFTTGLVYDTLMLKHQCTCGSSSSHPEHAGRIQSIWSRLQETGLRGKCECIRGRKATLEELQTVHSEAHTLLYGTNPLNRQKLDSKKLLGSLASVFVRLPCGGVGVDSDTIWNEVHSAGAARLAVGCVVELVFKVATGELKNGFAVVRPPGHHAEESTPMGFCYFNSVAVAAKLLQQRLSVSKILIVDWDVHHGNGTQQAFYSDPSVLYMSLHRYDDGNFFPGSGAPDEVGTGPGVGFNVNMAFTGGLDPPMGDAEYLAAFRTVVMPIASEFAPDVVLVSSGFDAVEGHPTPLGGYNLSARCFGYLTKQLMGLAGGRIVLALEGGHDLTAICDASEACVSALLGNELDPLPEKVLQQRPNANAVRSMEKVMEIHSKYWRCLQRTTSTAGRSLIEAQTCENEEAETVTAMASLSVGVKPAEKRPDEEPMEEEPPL

For the compound `NC(=NO)c1ccc2c(c1)N(Cc1ccc(C(=O)NO)c(-c3ccccc3)c1)c1ccccc1S2` [Compound 7g, N-Hydroxy-4-[2-(N’-hydroxycarbamimidoyl)-10H-phenothiazin-10-yl]methyl-2-phenylbenzamide], the “levels of Hsp90” value in the data set with SCC2095 cells (SCC2095, 24 h) is given as “increased”. Moreover, in the data set on SCC2095 cells (SCC2095, 24 h), the “levels of PPARγ” value is given as “increased”. The “levels of cleaved caspase 9” value with SCC2095 cells (SCC2095, 24 h) was “up-regulated”. For the same compound, the “levels of p21” value in the data set on SCC2095 cells (SCC2095, 24 h) is given as “increased”. Further, in the data set with SCC2095 cells (SCC2095, 24 h), the “levels of pro-caspase 8” value is “down-regulated”. Also, the “phosphorylation of Histone H2A.X” value with SCC2095 cells (SCC2095, DNA damage biomarker) is recorded as “increased”. The “phosphorylation of p38” value in the data set with SCC2095 cells (SCC2095, dose-dependent) is on record as “up-regulated”. In addition, the half-inhibitory concentration (IC50) (commonly the concentration at which inhibition is half-maximal) in data set [1] was 8000 nM; in data set [2], 3000 to 8400 nM; with MDA-MB-231 cells, 8400 ± 2700 nM; with HeLa nuclear HDACs, > 40000 nM; against HDAC4, 180 ± 60 nM; on HDAC6 it was 970 ± 50 nM. Further, inhibition at HDAC9 was half-maximal at 40 ± 1 nM (IC50).
